Laboratory results published in ChEMBL document CHEMBL2429724, “Computational POM evaluation of experimental in vitro Trypanosoma cruzi and Mycobacterium tuberculosis inhibition of heterocyclic-2-carboxylic acid (3-cyano-1,4-di-noxidequinoxalin-2-yl)amide derivatives” (Med Chem Res, 2013).
In brackets after ≈: the same amount, converted by molar mass.

What was measured:
Trypanosoma cruzi [1] = test: Antimicrobial activity against benznidazole-resistant epimastigotes of Trypanosoma cruzi Tulahuen 2 assessed as growth inhibition at 25 uM measured on day 5 by spectrophotometry; type: functional; conditions: Tulahuen 2, 120 h, read-out: GI
[2] = test system: Mycobacterium tuberculosis; test: Antimicrobial activity against Mycobacterium tuberculosis H37Rv ATCC 27294 by microplate Alamar Blue assay; type: functional
Trypanosoma cruzi [3] = test: Antimicrobial activity against benznidazole-resistant epimastigotes of Trypanosoma cruzi Tulahuen 2 assessed as growth inhibition measured on day 5 by spectrophotometry; type: functional, organism-based; conditions: Tulahuen 2, 120 h

| Compound | inhibition of growth at 25 µM (Trypanosoma cruzi [1]) [%] | MIC [2] [µg/mL] | MIC (Trypanosoma cruzi [3]) [µM] |
| --- | --- | --- | --- |
| N#Cc1c(NC(=O)c2ccco2)[n+]([O-])c2cc(F)c(F)cc2[n+]1[O-] | 53 | 4.7 (≈ 14.1 µM) | – |
| N#Cc1c(NC(=O)c2cccs2)[n+]([O-])c2cc(F)c(F)cc2[n+]1[O-] | 92 | – | – |
| N#Cc1c(NC(=O)c2ccc([N+](=O)[O-])o2)[n+]([O-])c2ccc(C(F)(F)F)cc2[n+]1[O-] | – | 14.4 (≈ 35.2 µM) | – |
| N#Cc1c(NC(=O)c2ccc([N+](=O)[O-])s2)[n+]([O-])c2ccccc2[n+]1[O-] | 0 | 2.88 (≈ 8.06 µM) | – |
| Cc1ccc2c(c1)[n+]([O-])c(C#N)c(NC(=O)c1ccc([N+](=O)[O-])s1)[n+]2[O-] | 11.4 | – | – |
| Cc1cc2c(cc1C)[n+]([O-])c(NC(=O)c1ccc([N+](=O)[O-])s1)c(C#N)[n+]2[O-] | 36.4 | – | – |
| COc1ccc2c(c1)[n+]([O-])c(C#N)c(NC(=O)c1ccc([N+](=O)[O-])s1)[n+]2[O-] | – | 9.54 (≈ 24.6 µM) | – |
| N#Cc1c(NC(=O)c2ccc([N+](=O)[O-])s2)[n+]([O-])c2ccc(Cl)cc2[n+]1[O-] | 15 | – | – |
| N#Cc1c(NC(=O)c2ccc([N+](=O)[O-])s2)[n+]([O-])c2cc(Cl)c(Cl)cc2[n+]1[O-] | 29.8 | – | – |
| N#Cc1c(NC(=O)c2ccc([N+](=O)[O-])s2)[n+]([O-])c2ccc(F)cc2[n+]1[O-] | 2.5 | – | – |
| N#Cc1c(NC(=O)c2ccc([N+](=O)[O-])s2)[n+]([O-])c2cc(F)c(F)cc2[n+]1[O-] | 9.2 | – | – |
| N#Cc1c(NC(=O)c2ccc([N+](=O)[O-])s2)[n+]([O-])c2cc(C(F)(F)F)ccc2[n+]1[O-] | – | 1.7 (≈ 4 µM) | – |
| N#Cc1c(NC(=O)c2ccc([N+](=O)[O-])s2)[n+]([O-])c2ccc(C(F)(F)F)cc2[n+]1[O-] | – | 6 (≈ 14.1 µM) | – |
| N#Cc1c(NC(=O)c2cccs2)[n+]([O-])c2ccc(F)cc2[n+]1[O-] | 27.5 | 1.47 (≈ 4.45 µM) | – |
| N#Cc1c(NC(=O)c2cccs2)[n+]([O-])c2cc(F)ccc2[n+]1[O-] | – | 4.58 (≈ 13.9 µM) | – |
| N#Cc1c(NC(=O)c2cccs2)[n+]([O-])c2ccc(C(F)(F)F)cc2[n+]1[O-] | – | 9.18 (≈ 24.1 µM) | – |
| N#Cc1c(NC(=O)c2ccc([N+](=O)[O-])o2)[n+]([O-])c2ccccc2[n+]1[O-] | 0.7 | – | – |
| Cc1ccc2c(c1)[n+]([O-])c(C#N)c(NC(=O)c1ccc([N+](=O)[O-])o1)[n+]2[O-] | 0 | – | – |
| Cc1cc2c(cc1C)[n+]([O-])c(NC(=O)c1ccc([N+](=O)[O-])o1)c(C#N)[n+]2[O-] | 0 | – | – |
| COc1ccc2c(c1)[n+]([O-])c(C#N)c(NC(=O)c1ccc([N+](=O)[O-])o1)[n+]2[O-] | – | 14.5 (≈ 39 µM) | – |
| N#Cc1c(NC(=O)c2ccc([N+](=O)[O-])o2)[n+]([O-])c2ccc(Cl)cc2[n+]1[O-] | – | 5.81 (≈ 15.5 µM) | – |

| Compound | inhibition of growth at 25 µM (Trypanosoma cruzi [1]) [%] | MIC [2] [µg/mL] | MIC (Trypanosoma cruzi [3]) [µM] |
| --- | --- | --- | --- |
| N#Cc1c(NC(=O)c2ccc([N+](=O)[O-])o2)[n+]([O-])c2cc(Cl)c(Cl)cc2[n+]1[O-] | – | 13.6 (≈ 33.1 µM) | – |
| N#Cc1c(NC(=O)c2ccc([N+](=O)[O-])o2)[n+]([O-])c2ccc(F)cc2[n+]1[O-] | – | 21.7 (≈ 60.4 µM) | – |
| N#Cc1c(NC(=O)c2ccc([N+](=O)[O-])o2)[n+]([O-])c2cc(F)c(F)cc2[n+]1[O-] | – | 22.2 (≈ 58.7 µM) | – |
| N#Cc1c(NC(=O)c2ccc([N+](=O)[O-])o2)[n+]([O-])c2cc(C(F)(F)F)ccc2[n+]1[O-] | – | 12.8 (≈ 31.3 µM) | – |
| N#Cc1c(NC(=O)c2ccco2)[n+]([O-])c2ccc(Cl)cc2[n+]1[O-] | – | 15.4 (≈ 46.4 µM) | – |
| N#Cc1c(NC(=O)c2ccco2)[n+]([O-])c2cc(Cl)c(Cl)cc2[n+]1[O-] | 31.6 | – | – |
| N#Cc1c(NC(=O)c2ccco2)[n+]([O-])c2ccc(F)cc2[n+]1[O-] | 19.8 | – | – |
| N#Cc1c(NC(=O)c2ccco2)[n+]([O-])c2cc(C(F)(F)F)ccc2[n+]1[O-] | – | 17.9 (≈ 49.1 µM) | – |
| N#Cc1c(NC(=O)c2ccco2)[n+]([O-])c2ccc(C(F)(F)F)cc2[n+]1[O-] | – | 24.2 (≈ 66.5 µM) | – |
| N#Cc1c(NC(=O)c2cccs2)[n+]([O-])c2ccccc2[n+]1[O-] | 19 | 5.38 (≈ 17.2 µM) | – |
| Cc1ccc2c(c1)[n+]([O-])c(C#N)c(NC(=O)c1cccs1)[n+]2[O-] | 16.4 | 2.08 (≈ 6.37 µM) | – |
| Cc1cc2c(cc1C)[n+]([O-])c(NC(=O)c1cccs1)c(C#N)[n+]2[O-] | 13.5 | 1.19 (≈ 3.5 µM) | – |
| COc1ccc2c(c1)[n+]([O-])c(C#N)c(NC(=O)c1cccs1)[n+]2[O-] | 15.1 | 48.9 (≈ 143 µM) | – |
| N#Cc1c(NC(=O)c2cccs2)[n+]([O-])c2ccc(Cl)cc2[n+]1[O-] | – | 2.47 (≈ 7.12 µM) | – |
| N#Cc1c(NC(=O)c2cccs2)[n+]([O-])c2cc(Cl)c(Cl)cc2[n+]1[O-] | – | 13.6 (≈ 35.7 µM) | – |
| N#Cc1c(NC(=O)c2ccco2)[n+]([O-])c2ccccc2[n+]1[O-] | 3.1 | 0.977 (≈ 3.3 µM) | – |
| Cc1ccc2c(c1)[n+]([O-])c(C#N)c(NC(=O)c1ccco1)[n+]2[O-] | 11.6 | 8.84 (≈ 28.5 µM) | – |
| Cc1cc2c(cc1C)[n+]([O-])c(NC(=O)c1ccco1)c(C#N)[n+]2[O-] | 13.1 | – | – |
| COc1ccc2c(c1)[n+]([O-])c(C#N)c(NC(=O)c1ccco1)[n+]2[O-] | 9.5 | – | – |
| CC1CS(=O)(=O)CCN1/N=C/c1ccc([N+](=O)[O-])o1 (configuration not stated) [NIFURTIMOX] | 100 | – | 7.7 (≈ 2.21 µg/mL) |
| CO[C@H]1/C=C/O[C@@]2(C)Oc3c(C)c(O)c4c(O)c(c(/C=N/N5CCN(C)CC5)c(O)c4c3C2=O)NC(=O)/C(C)=C\C=C\[C@H](C)[C@H](O)[C@@H](C)[C@@H](O)[C@@H](C)[C@H](OC(C)=O)[C@@H]1C [RIFAMPIN] | – | 0.125 (≈ 0.152 µM) | – |
